Molecular target: T1, HGFR (Homo sapiens, UniProt P08581)
T1 construct: purchased Upstate 14-526
Assay: HGFR continuous-coupled spectrophotometric assay
Assay type: biochemical
Settings: for inhibition at 1 µM: Table 6, percent c-MET inhibition at 1 μM, read-out: % inhibition; for I(%): test concentration not given; for inhibition at 0.05 µM: Table 5, percent c-MET inhibition at 50 nM

T1 sequence (P08581 974-1390 limits assumed): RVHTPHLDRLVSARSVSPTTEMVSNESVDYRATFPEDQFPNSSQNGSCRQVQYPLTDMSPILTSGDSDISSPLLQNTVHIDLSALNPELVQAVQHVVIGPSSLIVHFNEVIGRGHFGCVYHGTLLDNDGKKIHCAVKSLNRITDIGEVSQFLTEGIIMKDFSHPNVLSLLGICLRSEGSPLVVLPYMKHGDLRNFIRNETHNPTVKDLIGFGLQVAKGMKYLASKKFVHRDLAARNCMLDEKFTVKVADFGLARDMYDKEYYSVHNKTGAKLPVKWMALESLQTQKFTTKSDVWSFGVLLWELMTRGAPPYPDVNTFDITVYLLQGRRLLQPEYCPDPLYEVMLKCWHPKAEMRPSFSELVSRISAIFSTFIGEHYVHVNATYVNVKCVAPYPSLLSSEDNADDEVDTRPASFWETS

SMILES | % inhibition | inhibition at 1 µM | further results
Nc1ncc(C(=O)N2CCN(CC(=O)Nc3ccccn3)CC2)cc1OCc1c(Cl)cccc1Cl | – | 56% | –
Cc1cc2cc(CNC(=O)c3cnc(N)c(OCc4c(Cl)cccc4Cl)c3)ccc2[nH]1 | – | 20% | –
CN(CCc1ccccn1)CC1(O)CCN(C(=O)c2cnc(N)c(OCc3c(Cl)cccc3Cl)c2)C1 (stereo not drawn) | – | 18% | –
CC(Oc1cc(-c2ccccc2Cl)cnc1N)c1c(Cl)ccc(F)c1Cl (stereo not drawn) [Example I-560, 5-(2-Chloro-phenyl)-3-[1-(2,6-dichloro-3-fluoro-phenyl)-ethoxy]-pyridin-2-ylamine] | – | – | I(%) (Table 3, Ki(μM) or I(%)): 24%
CC(Oc1cc(-c2ccc(C(=O)N[C@H]3CC[C@H](O)CC3)cc2)cnc1N)c1c(Cl)ccc(F)c1Cl (stereo partly drawn) [drawing 1039] | – | – | inhibition at 0.05 µM: 73%
Nc1ncc(C(=O)NCc2c(F)cccc2C(F)(F)F)cc1OCc1c(Cl)cccc1Cl | – | 33% | –
Cc1cccc(C)c1-c1cnc(N)c(OC(C)c2c(Cl)ccc(F)c2Cl)c1 (stereo not drawn) [Example I-567, 3-[1-(2,6-Dichloro-fluoro-pheny)-ethoxy]-5-(2,6-dimethylphenyl)-pyridin-2-ylamine] | – | – | I(%) (Table 3, Ki(μM) or I(%)): 0%
Nc1ncc(-c2ccc(C(=O)N3CCC(N4CCCC4)CC3)cc2)cc1OCc1ccccc1 [Example I-649, [4-(6-Amino-5-benzyloxy-pyridin-3-yl)-phenyl]-(4-pyrrolidin-1-yl-piperidin-1-yl)-methanone] | – | – | I(%) (Table 3, Ki(μM) or I(%)): 29%
Nc1ncc(-c2ccc(C(=O)N3CCC(N4CCCC4)CC3)cc2)cc1OCc1ccc(C(=O)NCCN2CCCC2)cc1 | % inhibition = 10 | – | –
Cc1cc(C)c(COc2cc(-c3ccc(C(=O)N4CCC(N5CCCC5)CC4)cc3)cnc2N)c(C)c1 [Example I-653, {4-[6-Amino-5-(2,4,6-trimethyl-benzyloxy)-pyridin-3-yl]-phenyl}-(4-pyrrolidin-1-yl-piperidin-1-yl)-methanone] | – | – | I(%) (Table 3, Ki(μM) or I(%)): 2%
CN1CCN(C(=O)c2cnc(N)c(OCc3c(Cl)cccc3Cl)c2)CC1 | – | 32% | –
CC(Oc1cc(-c2ccc(C(=O)NCC(c3ccc[nH]3)C(F)(F)F)cc2)cnc1N)c1c(Cl)ccc(F)c1Cl (stereo not drawn) | – | – | inhibition at 0.05 µM: 70%
CC(=O)N(C)C1CCN(C(=O)c2cnc(N)c(OCc3c(Cl)cccc3Cl)c2)C1 (stereo not drawn) | – | 31% | –
CC(C)CC(NC(=O)c1cnc(N)c(OCc2c(Cl)cccc2Cl)c1)C(N)=O (stereo not drawn) | – | 40% | –
Nc1ncc(C(=O)NC2COC3(CCN(Cc4ccncc4)CC3)C2)cc1OCc1c(Cl)cccc1Cl (stereo not drawn) | – | 20% | –
Cc1cc(C)cc(COc2cc(-c3ccc(C(=O)N4CCC(N5CCCC5)CC4)cc3)cnc2N)c1 | % inhibition = 14 | – | –
Cc1nc(COc2cc(-c3ccc(C(=O)N4CCC(N5CCCC5)CC4)cc3)cnc2N)cs1 | % inhibition = 6 | – | –
COC(=O)c1ccc(-c2cnc(N)c(OC(C)c3c(Cl)ccc(F)c3Cl)c2)c(C)c1 (stereo not drawn) [Example I-548, 4-{6-Amino-5-[1-(2,6-dichloro-3-fluoro-phenyl)-ethoxy]-Pyndin-3-yl}-3-methyl-benzoic acid methyl ester] | – | – | I(%) (Table 3, Ki(μM) or I(%)): 17%
Nc1ncc(-c2ccc(C(=O)N3CCC(N4CCCC4)CC3)cc2)cc1OCc1c(F)ccc(F)c1F | % inhibition = 30 | – | –

SMILES | % inhibition | inhibition at 1 µM | further results
Cc1ccnc2nc(COc3cc(-c4ccc(C(=O)N5CCC(N6CCCC6)CC5)cc4)cnc3N)cn12 | % inhibition = 10 | – | –
CC(Oc1cc(-c2ccc(C(=O)NC[C@@H](C)O)cc2)cnc1N)c1c(Cl)ccc(F)c1Cl (stereo partly drawn) | – | – | inhibition at 0.05 µM: 79%
Nc1ncc(-c2ccc(C(=O)N3CCC(N4CCCC4)CC3)cc2)cc1COc1ccc2ccccc2c1 | % inhibition = 27 | – | –
C[C@@H]1CN(C(=O)c2ccc(-c3cnc(N)c(OCc4cccc(F)c4C(F)(F)F)c3)cc2)C[C@H](C)N1 [Example I-619, {4-[6-Amino-5-(3-fluoro-2-trifluoromethyl-benzyloxy)-pyridin-3-yl]-phenyl}-(3,5-dimethyl-piperazin-1-yl)-methanone] | – | – | I(%) (Table 3, Ki(μM) or I(%)): 16%
Nc1ncc(-c2ccc(C(=O)N3CCC(N4CCCC4)CC3)cc2)cc1OCc1cccc(C(=O)NCCc2ccccn2)c1 | % inhibition = 12 | – | –
Nc1ncc(C(=O)NCc2cc3cc[nH]c3cn2)cc1OCc1c(Cl)cccc1Cl | – | 28% | –
Cc1noc(COc2cc(-c3ccc(C(=O)N4CCC(N5CCCC5)CC4)cc3)cnc2N)n1 | % inhibition = 11 | – | –
Nc1ncc(C(=O)N2CCC(CCO)CC2)cc1OCc1c(Cl)cccc1Cl | – | 45% | –
Nc1ncc(C(=O)NC(CO)c2cccnc2)cc1OCc1c(Cl)cccc1Cl (stereo not drawn) | – | 22% | –
N#Cc1cccc(COc2cc(-c3ccc(C(=O)N4CCC(N5CCCC5)CC4)cc3)cnc2N)c1 | % inhibition = 12 | – | –
Nc1ncc(-c2ccc(C(=O)N3CCC(N4CCCC4)CC3)cc2)cc1OCc1csc(-c2ccc(C(F)(F)F)cc2)n1 | % inhibition = 21 | – | –
Nc1ncc(C(=O)N2CCN(CC(=O)N3CCOCC3)CC2)cc1OCc1c(Cl)cccc1Cl | – | 31% | –
COC(=O)c1cccc(COc2cc(-c3ccc(C(=O)N4CCC(N5CCCC5)CC4)cc3)cnc2N)c1 [Example I-625, 3-{2-Amino-5-[4-(4-pyrrolidin-1-yl-piperidzne-1-carbonyl)-phenyl]-pyridin-3-yloxymethyl)-benzoic acid methyl ester] | – | – | I(%) (Table 3, Ki(μM) or I(%)): 6%
CCC(COC)NC(=O)c1ccc(-c2cnc(N)c(OC(C)c3c(Cl)ccc(F)c3Cl)c2)cc1 (stereo not drawn) | – | – | inhibition at 0.05 µM: 59%
CC(=O)c1ccccc1-c1cnc(N)c(OC(C)c2c(Cl)ccc(F)c2Cl)c1 (stereo not drawn) [Example I-562, 1-(2-{6-Amino-5-[1-(2,6-dichloro-3-fluoro-phenyl)-ethoxy]-pyridin-3-yl}-phenyl)-ethanone] | – | – | I(%) (Table 3, Ki(μM) or I(%)): 8%
CC1CN(C(=O)c2ccc(-c3cnc(N)c(OCc4c(F)cccc4F)c3)cc2)CC(C)N1 (stereo not drawn) [Example I-620, {4-[6-Amino-5-(2,6-difluoro-benzyloxy)-pyridin-3-yl]-phenyl}-(3,5-dimethyl-piperazin-1-yl)-methanone] | – | – | I(%) (Table 3, Ki(μM) or I(%)): 5%
CC(Oc1cc(-c2ccccc2F)cnc1N)c1c(Cl)ccc(F)c1Cl (stereo not drawn) [Example I-563, 3-[1-(2,6-Dichloro-3-fluoro-phenyl)-ethoxy]-5-(2-fluoro-phenyl)-pyridin-2-ylamine] | – | – | Ki (Table 3, Ki(μM) or I(%)): 0.433 µM
CC(Oc1cc(-c2ccc(C(=O)N3CCC(N4CCCC4)CC3)cc2)cnc1N)c1ccc(C(=O)NCCCN2CCCC2=O)cc1 (stereo not drawn) [Example I-632, 4-(1-{2-Amino-5-[4-(4-pyrrolidin-1-yl-piperidine-1-carbonyl)-phenyl)-pyridin-3-yloxy}-ethyl)-[3-(2-oxo-pyrrolidin-1-yl)-propyl]-benzamide] | – | – | I(%) (Table 3, Ki(μM) or I(%)): 0%
Nc1ncc(-c2ccc(C(=O)N3CCC(N4CCCC4)CC3)cc2)cc1OCc1cc(Cl)cc(Cl)c1 | % inhibition = 19 | – | –

The next lines start with results.

% inhibition | inhibition at 1 µM | SMILES | further results
% inhibition = 39 | – | Cc1ccc(COc2cc(-c3ccc(C(=O)N4CCC(N5CCCC5)CC4)cc3)cnc2N)c(F)c1F | –
% inhibition = 26 | – | Nc1ncc(-c2ccc(C(=O)N3CCC(N4CCCC4)CC3)cc2)cc1OCc1cc(Cl)ccc1Cl | –
% inhibition = 32 | – | Nc1ncc(-c2ccc(C(=O)N3CCC(N4CCCC4)CC3)cc2)cc1OCc1cccc(C(=O)Nc2ccc(N3CCCCC3)cc2)c1 | –
% inhibition = 24 | – | Nc1ncc(-c2ccc(C(=O)N3CCC(N4CCCC4)CC3)cc2)cc1OCc1cccc(Br)c1 | –
– | 10% | Nc1ncc(C(=O)N2CCS(=O)(=O)CC2)cc1OCc1c(Cl)cccc1Cl | –
% inhibition = 12 | – | Cc1nc2ccc(COc3cc(-c4ccc(C(=O)N5CCC(N6CCCC6)CC5)cc4)cnc3N)cc2c(=O)[nH]1 | –
– | 20% | COCCNC(=O)C1CCCN(C(=O)c2cnc(N)c(OCc3c(Cl)cccc3Cl)c2)C1 (stereo not drawn) | –
– | 19% | N#CCCN1CCN(C(=O)c2cnc(N)c(OCc3c(Cl)cccc3Cl)c2)CC1 | –
% inhibition = 15 | – | Nc1ncc(-c2ccc(C(=O)N3CCC(N4CCCC4)CC3)cc2)cc1OCc1ccc(S(=O)(=O)Nc2ccc(F)cc2)cc1 | –
% inhibition = 14 | – | Cn1nc(C(F)(F)F)c2cc(COc3cc(-c4ccc(C(=O)N5CCC(N6CCCC6)CC5)cc4)cnc3N)sc21 | –
– | 26% | Nc1ncc(C(=O)N2CCC(N3CCCCC3=O)CC2)cc1OCc1c(Cl)cccc1Cl | –
% inhibition = 28 | – | Nc1ncc(-c2ccc(C(=O)N3CCC(N4CCCC4)CC3)cc2)cc1OCc1cccc(Cl)c1F | –
% inhibition = 9 | – | Nc1nc(COc2cc(-c3ccc(C(=O)N4CCC(N5CCCC5)CC4)cc3)cnc2N)nc(Nc2ccccc2)n1 | –
– | 33% | CN1CCC(N(C)C(=O)c2cnc(N)c(OCc3c(Cl)cccc3Cl)c2)C1 (stereo not drawn) | –
% inhibition = 5 | – | Cn1nc(-c2ccccc2)nc1COc1cc(-c2ccc(C(=O)N3CCC(N4CCCC4)CC3)cc2)cnc1N | –
– | 37% | Nc1ncc(C(=O)NCc2ccc(O)cc2)cc1OCc1c(Cl)cccc1Cl | –
% inhibition = 8 | – | Cc1cc(COc2cc(-c3ccc(C(=O)N4CCC(N5CCCC5)CC4)cc3)cnc2N)nc(-c2ccc(C(F)(F)F)cn2)n1 | –
– | 38% | Nc1ncc(C(=O)NC[C@H]2CC[C@H](c3nc4ccccc4[nH]3)CC2)cc1OCc1c(Cl)cccc1Cl | –
% inhibition = 77 | – | N#Cc1ccccc1-c1ccc(COc2cc(-c3ccc(C(=O)N4CCC(N5CCCC5)CC4)cc3)cnc2N)cc1 | –
% inhibition = 13 | – | COc1ccc2sc(COc3cc(-c4ccc(C(=O)N5CCC(N6CCCC6)CC5)cc4)cnc3N)cc2c1 | –
% inhibition = 10 | – | Nc1ncc(-c2ccc(C(=O)N3CCC(N4CCCC4)CC3)cc2)cc1OCc1ccncc1 | –
– | 24% | Nc1ncc(C(=O)NCc2ncccc2O)cc1OCc1c(Cl)cccc1Cl | –
% inhibition = 9 | – | Nc1ncc(-c2ccc(C(=O)N3CCC(N4CCCC4)CC3)cc2)cc1OCc1nc(-c2ccccn2)no1 | –
% inhibition = 15 | – | Nc1ncc(-c2ccc(C(=O)N3CCC(N4CCCC4)CC3)cc2)cc1OCc1ccc(C(=O)NCc2cccnc2)cc1 | –
– | 45% | CC(CN(C)C)NC(=O)c1cnc(N)c(OCc2c(Cl)cccc2Cl)c1 (stereo not drawn) | –
– | 36% | CC(NC(=O)c1cnc(N)c(OCc2c(Cl)cccc2Cl)c1)c1ccc(O)cc1 (stereo not drawn) | –
% inhibition = 27 | – | Cc1cc(COc2cc(-c3ccc(C(=O)N4CCC(N5CCCC5)CC4)cc3)cnc2N)ccc1F | –
% inhibition = 26 | – | Nc1ncc(-c2ccc(C(=O)N3CCC(N4CCCC4)CC3)cc2)cc1OCc1cc(F)ccc1C(F)(F)F | –
